The results in this text go back to US7964642B2, “Vanilloid TRPV1 receptor antagonists” (Pharmeste S.R.L., priority 2004, dated 2011).

Experiment [1] concerns the target T1, vanilloid TRPV1 receptor (Rattus norvegicus, UniProt O35433).
T1 construct: rat trigeminal neuronal cells, that therefore were identified as TRPV1 expressing neurons; endogenous in cells; host or cells: primary trigeminal ganglion neurons from 2-day-old Sprague-Dawley rats
Put plainly: Ca2+ fluorescence measurements in cultured rat trigeminal ganglia neurons: inhibition of capsaicin-induced calcium mobilisation. Format: cell-based. To be noted: capsaicin 0.1 μM; for IC50: 10 minutes pre-incubation, mean and 95% fiducial limits, read-out: IC50 inhibiting capsaicin-evoked [Ca2+]i mobilization; for concentration giving complete inhibition of the response to capsaicin / threshold concentration that produced an inhibitory effect: compounds incubated 10 minutes prior to capsaicin challenge. On the procedure:
Ca^2+ Fluorescence Measurements in Cultured Rat Trigeminal Ganglia
Newborn rats (2 days old) were terminally anaesthetized and decapitated. Trigeminal ganglia were removed and rapidly placed in a cold phosphate buffered solution (PBS) before being transferred to collagenase/dispase (1 mg/ml dissolved in Ca^2+-Mg^2+-free PBS) for 35 min. at 37° C.^4.
After the enzymatic treatment the ganglia were rinsed three times with Ca^2+-Mg^2+-free PBS and then placed in 2 ml of cold DMEM supplemented with 10% foetal bovine serum (FBS, heat inactivated), 2 mM L-glutamine, 100 μ/ml penicillin and […] streptomycin. The ganglia were then dissociated into single cells by several passages through a series of syringe needles (23 G down to 25 G). Finally, the medium and ganglia cells sieved through a […] filter to remove debris and taken up with 8 ml of DMEM medium and centrifuged (200×g for 5 min.). The final cell pellet was re-suspended in DMEM medium (supplemented with 100 ng/ml mouse Nerve Growth Factor (mouse-NGF-7S) and cytosine-β-D-arabino-furanoside free base (ARA-C) […]). The cells were plated on poly-L-lysine (8.3 mM) and laminin (5 mM) coated 25 mm glass cover slips and kept for 2 to 5 days at 37° C. in a humidified incubator gassed with 5% CO2 and air. Plated neurons were loaded with Fura-2-AM-ester (3 μM) in Ca^2+ buffer solution of the following composition (mM): CaCl2 1.4, KCl 5.4, MgSO4 0.4, NaCl 135, D-glucose 5, HEPES 10 with BSA 0.1%, at pH 7.4, for 40 min at 37° C., washed twice with the Ca^2+ buffer solution and transferred to a chamber on the stage of a Nikon eclipse TE300 microscope. The dye was excited at 340 and 380 nm to indicate relative [Ca^2+]i changes by the F340/F380 ratio recorded with a dynamic image analysis system (Laboratory Automation 2.0, RCS, Florence, Italy). Capsaicin (0.1 μM) and ionomycin (5 μM) were added to the chamber. A calibration curve using a buffer containing Fura-2-AM-ester and determinant concentrations of free Ca^2+ was used to convert the obtained data from F340/F380 ratio to [Ca^2+]i (nM)^5.
The effects of Ia, Ib and Ic were tested against capsaicin-induced calcium mobilisation; Ia, Ib and Ic were incubated for 10 minutes prior to the capsaicin challenge. The inhibitory effect of the reference TRPV1 antagonist, capsazepine, was also tested.
(A change in cytosolic calcium serves as a functional read-out for many receptors and channels.)

The target of experiment [2] is T1, vanilloid TRPV1 receptor. Put plainly: Wiping test in rats (capsaicin-induced wiping movements). Format: in vivo. To be noted: intraperitoneal; for effect on capsaicin-induced wiping in rats: 15 minutes prior to capsaicin challenge; for ED50 capsaicin-induced wiping: 15 minutes prior to capsaicin challenge (capsaicin 0.1%, 50 μl on conjunctiva), mean and 95% fiducial limits. On the procedure:
Newborn and adult Sprague-Dawley rats (˜250 g) were used (Harlam, Italy). All experiments complied with the national guidelines and were approved by the regional ethics committee.
The irritant effect (induction of wiping movements) of capsaicin was assessed by applying capsaicin 0.1% (50 μl) on the rat conjunctiva and the number of wiping movements was recorded during the 60 s period that followed the application. In another set of experiments, the rats were treated intraperitoneally with different doses of Ia and Ic and capsaicin-induced wiping was studied.

Experiment [3] concerns rat trigeminal neuronal cells. Put plainly: Ca2+ fluorescence measurements in cultured rat trigeminal ganglia neurons: KCl-evoked [Ca2+]i mobilization. Format: cell-based. To be noted: 5 mM KCl.

T1 sequence (O35433 whole entry): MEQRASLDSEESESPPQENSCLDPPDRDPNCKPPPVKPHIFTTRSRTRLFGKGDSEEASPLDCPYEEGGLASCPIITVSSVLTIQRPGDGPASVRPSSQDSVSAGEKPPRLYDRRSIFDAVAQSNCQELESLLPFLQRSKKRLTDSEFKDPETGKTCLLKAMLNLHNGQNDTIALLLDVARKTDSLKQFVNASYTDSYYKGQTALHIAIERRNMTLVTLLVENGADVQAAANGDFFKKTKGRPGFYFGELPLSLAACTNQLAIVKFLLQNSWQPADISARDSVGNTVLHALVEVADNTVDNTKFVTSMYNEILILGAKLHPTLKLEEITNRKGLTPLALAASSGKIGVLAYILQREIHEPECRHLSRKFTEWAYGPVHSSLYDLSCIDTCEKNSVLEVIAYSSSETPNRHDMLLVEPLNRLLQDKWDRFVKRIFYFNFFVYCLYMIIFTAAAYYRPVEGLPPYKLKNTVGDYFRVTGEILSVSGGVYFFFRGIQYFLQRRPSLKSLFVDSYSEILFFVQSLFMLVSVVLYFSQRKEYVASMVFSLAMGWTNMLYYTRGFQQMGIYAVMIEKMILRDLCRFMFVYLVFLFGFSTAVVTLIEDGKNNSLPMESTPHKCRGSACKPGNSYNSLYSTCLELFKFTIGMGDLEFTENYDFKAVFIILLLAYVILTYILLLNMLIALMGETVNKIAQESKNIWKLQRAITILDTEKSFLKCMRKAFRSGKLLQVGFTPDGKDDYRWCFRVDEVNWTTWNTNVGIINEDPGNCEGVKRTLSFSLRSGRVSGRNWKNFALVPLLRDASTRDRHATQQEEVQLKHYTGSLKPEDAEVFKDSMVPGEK

A word on the IC50: it is the concentration needed to halve the response being measured. `COc1cc(CNC(=S)NCc2ccc(C(C)(C)C)cc2)c(I)cc1O` [Ia, 1-(4-tert-butyl)-3-(2-iodo-4-hydroxy-5-methoxybenzyl) thiourea]: in experiment [1], the IC50 came to 3.48 nM, the “concentration giving complete inhibition of the response to capsaicin” value was 0.1 µM and the “threshold concentration that produced an inhibitory effect” value is reported as 0.1 nM. In addition, in experiment [2], the “effect on capsaicin-induced wiping in rats” value is on record as “significantly reduced” and the ED50 capsaicin-induced wiping is recorded as 2.76 (2.05-3.35) mg/kg. The “Mobilization of [Ca2+]i evoked by KCl” value in experiment [3] was “not affected”.

With `COc1cc(CNC(=S)NCc2ccc(C(C)(C)C)cc2)c(Cl)cc1O` [Ib, 1-(4-tert-butyl)-3-(2-chloro-4-hydroxy-5-methoxybenzyl) thiourea], in experiment [1], the IC50 was 3.86 nM and the “threshold concentration that produced an inhibitory effect” value was 0.1 nM. Moreover, the “Mobilization of [Ca2+]i evoked by KCl” value in experiment [3] is given as “not affected”.

Consider `COc1cc(CNC(=S)NCc2ccc(C(F)(F)F)cc2)c(I)cc1O` [Ic, 1-(4-trifluoromethyl)-3-(2-iodo-4-hydroxy-5-methoxybenzyl) thiourea], for which, in experiment [1], the IC50 is 70 nM, the “concentration giving complete inhibition of the response to capsaicin” value came out at 3 µM and the “threshold concentration that produced an inhibitory effect” value amounted to 1 nM. In addition, in experiment [2], the “effect on capsaicin-induced wiping in rats” value is “significantly reduced” and the ED50 capsaicin-induced wiping was 7.20 (6.34-7.89) mg/kg. Besides, in experiment [3], the “Mobilization of [Ca2+]i evoked by KCl” value is “not affected”.

As for `Oc1cc2c(cc1O)CN(C(=S)NCCc1ccc(Cl)cc1)CCC2` [capsazepine, reference compound], the IC50 in experiment [1] is 2340 nM.
